Calls of active or inactive are those of the source.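 How the source made its calls: active means fitted curve reaches 40% activation below the top valid tested dose, in every test run; inconclusive means test runs disagree on the call; inactive means the rest, including effects opposite to the expected direction.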

A short description of one experiment: E-selectin inducers in HUVECs, dose response, imaging, HUVEC, cherry-picked samples (AID 977605).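 Further: signal is the share of imaged cells scored positive for E-selectin.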 To be noted: HUVEC E-selectin immunostaining, at 19.5 µM (top of the series), percent of TNF-alpha response over vehicle.
In the case of `COc1ccc(-c2nnc3n2CCCCC3)cc1`, the activation was 0.032% (inactive).

Turning to `C[C@@H]1CN([C@H](C)CO)S(=O)(=O)c2ccc(-c3ccccc3)cc2O[C@H]1CN(C)S(C)(=O)=O`, the activation was -0.007% (inactive).

With `Cc1ccc(CNS(=O)(=O)c2ccc(C(F)(F)F)cc2)n1C`, the activation was -0.139% (inactive).

For the compound `O=C(C1CCCN(c2nnc(-n3cccc3)s2)C1)N1CCN(c2ccccc2)CC1` (centres undefined), the activation was 0.14% (inactive).

On to `O=C1CC(N2CCSCC2)C(=O)N1c1cccc(Br)c1` (centres undefined), for which the activation is -0.085% (inactive).

Consider `C[C@H](CO)N1C[C@H](C)[C@H](CN(C)CC2CC2)Oc2ccc(NC(=O)Cc3ccccc3)cc2CC1=O`, for which the activation was 0.216% (inactive).

With `Cc1ccc(S(=O)(=O)Nc2cc(-c3ccccc3)nn2C)cc1Cl`, the activation is -0.007% (inactive).

Take `C[C@@H]1CN([C@@H](C)CO)C(=O)c2cc(NC(=O)Cc3ccccc3)ccc2O[C@@H]1CN(C)Cc1ccc(Cl)c(Cl)c1`: the activation is 0.002% (inactive).

As to `C[C@@H]1CN([C@H](C)CO)C(=O)c2cc(NS(=O)(=O)c3ccccc3)ccc2O[C@@H]1CN(C)C(=O)NC1CCCCC1`, the activation is -0.139% (inactive).

Consider `CCOC(=O)C1(Cc2ccccc2C)CCCN(C(=O)c2ccnn2C)C1` (centres undefined), for which the activation is -0.138% (inactive).

Consider `C[C@@H]1CN([C@@H](C)CO)C(=O)Cc2cc(NC(=O)Nc3ccc(F)cc3)ccc2O[C@H]1CN(C)C(=O)Nc1ccc(C(F)(F)F)cc1`, for which the activation was -0.14% (inactive).

On to `Cc1noc(C)c1NC(=O)Nc1ccc2c(c1)CC(=O)N([C@@H](C)CO)C[C@H](C)[C@H](CN(C)Cc1ccc(Oc3ccccc3)cc1)O2`, for which the activation was 0.075% (inactive).

Consider `Cc1cc(C)cc(NC(=O)Nc2ccc(-n3ccc(C(F)(F)F)n3)cc2)c1`, for which the activation was 0.075% (inactive).

Take `COC(=O)CCCn1cc(CN2CC(N3CCN(Cc4ccccc4F)CC3)CS2(=O)=O)nn1` (centres undefined): the activation is -0.246% (inactive).

Consider `C[C@H]1CN([C@@H](C)CO)C(=O)c2cccc(NC(=O)c3ccncc3)c2O[C@H]1CN(C)Cc1ccc(C(=O)Nc2ccccc2N)cc1`, for which the activation is 0.016% (inactive).

Regarding `C[C@H](CO)N1C[C@H](C)[C@H](CN(C)Cc2ccc(Cl)c(Cl)c2)Oc2ccc(NS(=O)(=O)c3cccs3)cc2C1=O`, the activation is 0.328% (inactive).

Turning to `Cc1ccc(C(=O)NNC(=O)CSc2nnc(CNc3ccc(F)cc3)n2C)cc1`, the activation is -0.046% (inactive).

In the case of `C[C@H](CO)N1C[C@H](C)[C@H](CN(C)S(=O)(=O)c2ccc(Cl)cc2)Oc2c(NC(=O)C3CCCCC3)cccc2C1=O`, the activation was 0.576% (inactive).

As for `CO[C@@H]1CN(C)C(=O)c2ccc(NC(=O)c3nc4ccccc4s3)cc2OC[C@@H](C)N(Cc2cncnc2)C[C@@H]1C`, the activation is -0.082% (inactive).

Consider `C[C@@H]1CN([C@H](C)CO)C(=O)c2cc(N(C)C)ccc2O[C@@H]1CN(C)C(=O)Nc1ccc2c(c1)OCO2`, for which the activation was 0.018% (inactive).

Regarding `Cc1nn(CCS(=O)(=O)c2ccc(Cl)cc2)c(C)c1Br`, the activation is 0.08% (inactive).

For the compound `CS(=O)(=O)N1CCc2cc(C(=O)NC3CC3)ccc21`, the activation was 0.099% (inactive).

Turning to `C[C@H]1CN([C@@H](C)CO)C(=O)c2cc(N(C)C)ccc2O[C@H]1CN(C)Cc1ccc(C(=O)O)cc1`, the activation was 0.082% (inactive).

Consider `C[C@H](CO)N1C[C@H](C)[C@@H](CN(C)S(=O)(=O)c2cn(C)cn2)Oc2ccc(NS(=O)(=O)c3ccc(Cl)cc3)cc2C1=O`, for which the activation was -0.286% (inactive).

Take `O=C(NC(=S)N1CCN(c2ccc([N+](=O)[O-])cc2)CC1)c1ccccc1`: the activation is -0.117% (inactive).

As to `Cc1noc(C)c1NC(=O)N(C)C[C@@H]1Oc2ccc(NC(=O)Cn3cnnn3)cc2C(=O)N([C@@H](C)CO)C[C@@H]1C`, the activation is -0.143% (inactive).

As for `CC(=O)N(C)C[C@@H]1Oc2cc(C#Cc3ccccn3)ccc2S(=O)(=O)N([C@H](C)CO)C[C@@H]1C`, the activation is -0.123% (inactive).

As for `CCOC(=O)[C@]12CCCC=C1N(CCC1=CCCCC1)C(=O)[C@H](CC(=O)NCCC(C)C)C2`, the activation is 7.1% (inactive).

For the compound `C[C@H](CO)N1C[C@H](C)[C@H](CN(C)Cc2ccc(C(F)(F)F)cc2)Oc2ccc(N(C)C)cc2CC1=O`, the activation is 0.692% (inactive).

In the case of `COc1ccccc1CSc1nc2c(c(=O)n(C)c(=O)n2C)n1C`, the activation is -0.003% (inactive).

`C[C@@H]1CN([C@@H](C)CO)C(=O)Cc2cc(NC(=O)c3ccncc3)ccc2O[C@@H]1CN(C)C(=O)Nc1ccc(C(F)(F)F)cc1`: the activation is -0.044% (inactive).

As to `Cc1ccccc1NC(=O)c1cc(S(=O)(=O)Nc2cccc(C(=O)O)c2)ccc1Cl`, the activation was 0.3% (inactive).

With `C[C@H](CO)N1C[C@H](C)[C@H](CN(C)Cc2ccc(C(F)(F)F)cc2)Oc2ccc(NC(=O)Cc3cn(C)c4ccccc34)cc2CC1=O`, the activation was 0.156% (inactive).

`CC(C)(CN1CCCC1)NS(=O)(=O)c1ccc(Cl)cc1`: the activation is -0.279% (inactive).

Regarding `C[C@@H]1CN([C@@H](C)CO)C(=O)c2cc(N(C)C)ccc2O[C@@H]1CN(C)C(=O)Nc1cccc2ccccc12`, the activation was -0.224% (inactive).

As to `Cc1cc(C)cc(NC(=O)Cc2ccc(NC3=NC4CS(=O)(=O)CC4S3)cc2)c1` (centres undefined), the activation is 0.105% (inactive).

On to `C[C@@H]1CN([C@H](C)CO)C(=O)c2cc(C3=CCCC3)cnc2O[C@@H]1CN(C)C(=O)Nc1ccccc1`, for which the activation is 0.119% (inactive).

As to `C[C@H](CO)N1C[C@H](C)[C@H](CN(C)Cc2ccncc2)Oc2c(NC(=O)Nc3ccc(F)cc3)cccc2C1=O`, the activation is -0.19% (inactive).

On to `COc1ccc(S(=O)(=O)Nc2cccc3c2O[C@H](CN(C)C(=O)Nc2cccc4ccccc24)[C@@H](C)CN([C@H](C)CO)C3=O)cc1`, for which the activation was -0.185% (inactive).

Consider `COc1ccc(S(=O)(=O)N(C)C[C@H]2Oc3ccc(NC(=O)c4ccncc4)cc3C(=O)N([C@@H](C)CO)C[C@@H]2C)cc1`, for which the activation was -0.047% (inactive).

Consider `CC(C)(C)S(=O)(=O)c1cnc(-c2cnccn2)nc1N`, for which the activation is -0.028% (inactive).

With `COc1ccc(NC(=O)N(C)C[C@H]2Oc3ccc(NC(=O)c4ccncc4)cc3CC(=O)N([C@H](C)CO)C[C@@H]2C)cc1`, the activation was -0.048% (inactive).

As to `C[C@H]1CN([C@@H](C)CO)C(=O)c2cc(NC(=O)CCN3CCOCC3)ccc2O[C@H]1CN(C)S(C)(=O)=O`, the activation was -0.165% (inactive).

With `C[C@@H]1CN([C@@H](C)CO)C(=O)Cc2cc(NC(=O)c3ccncc3)ccc2O[C@@H]1CN(C)S(=O)(=O)c1cn(C)cn1`, the activation is -0.153% (inactive).

Consider `CCOC(=O)C1(Cc2cccc(OC)c2)CCN(Cc2ccccc2)CC1`, for which the activation was 0.067% (inactive).

Consider `CC(=O)c1ccc(N2CCN(c3ccnc4cc(Cl)ccc34)CC2)cc1`, for which the activation was 1.69% (inactive).

Turning to `COc1ccc(S(=O)(=O)Nc2ccc3c(c2)C(=O)N([C@@H](C)CO)C[C@@H](C)[C@@H](CN(C)Cc2ccc(C(=O)Nc4ccccc4N)cc2)O3)cc1`, the activation is 1.66% (inactive).

In the case of `C[C@H]1CN([C@@H](C)CO)C(=O)c2cc(NC(=O)CCCN(C)C)ccc2O[C@H]1CN(C)Cc1ccc(C(F)(F)F)cc1`, the activation was -0.127% (inactive).

For the compound `C[C@H](CO)N1C[C@H](C)[C@H](CN(C)S(=O)(=O)c2ccccc2)Oc2ccc(NC(=O)Nc3ccc(F)cc3)cc2CC1=O`, the activation was 0.322% (inactive).

Regarding `CC(C)NC(=O)N(C)C[C@@H]1Oc2c(NC(=O)c3ccc(-c4nccs4)cc3)cccc2C(=O)N([C@H](C)CO)C[C@H]1C`, the activation was -0.093% (inactive).

On to `C[C@H]1CN([C@@H](C)CO)C(=O)c2cccc(NC(=O)C3CCOCC3)c2O[C@H]1CN(C)Cc1ccc(Oc2ccccc2)cc1`, for which the activation is 0.01% (inactive).

Consider `Cc1noc(C)c1S(=O)(=O)N(C)C[C@H]1Oc2ccc(NC(=O)Nc3ccc(F)cc3)cc2CC(=O)N([C@H](C)CO)C[C@@H]1C`, for which the activation is -0.001% (inactive).

In the case of `CN(C1CCCCC1)S(=O)(=O)c1cn(C)c(=O)n(C)c1=O`, the activation was -0.175% (inactive).

As for `Cc1noc(C)c1NC(=O)Nc1cccc2c1O[C@@H](CN(C)Cc1ccc(C(F)(F)F)cc1)[C@H](C)CN([C@@H](C)CO)C2=O`, the activation is 0.145% (inactive).

As to `C[C@@H]1CN([C@@H](C)CO)C(=O)c2cccc(NC(=O)Nc3ccccc3)c2O[C@H]1CN(C)S(=O)(=O)c1ccccc1`, the activation was 0.91% (inactive).

Consider `O=C(Nc1cccc(S(=O)(=O)NCc2ccco2)c1)c1cccc(Cl)c1`, for which the activation was 0.285% (inactive).

Consider `Cc1ccc(CCNC(=O)C2CCC(CNc3c(N4CCC(C)CC4)c(=O)c3=O)CC2)cc1` (centres undefined), for which the activation was -0.022% (inactive).

The experiment is the same for the next values; noted with them: HUVEC E-selectin immunostaining, at 21 µM (top of the series), percent of TNF-alpha response over vehicle.
Take `C[C@H](CO)N1C[C@H](C)[C@@H](CN(C)Cc2ccc(Cl)c(Cl)c2)Oc2c(NC(=O)CCCCCC(=O)Nc3ccccc3N)cccc2C1=O`: the activation is 3.2% (inactive).

Consider `C[C@@H]1CN([C@H](C)CO)C(=O)c2cc(NS(C)(=O)=O)ccc2O[C@H]1CN(C)C(=O)Nc1ccc2c(c1)OCO2`, for which the activation is 0.437% (inactive).

`C[C@@H]1CN([C@H](C)CO)C(=O)c2cccc(NS(C)(=O)=O)c2O[C@@H]1CN(C)Cc1ccc(Oc2ccccc2)cc1`: the activation was -0.185% (inactive).

As to `COc1ccc(CN(C)C[C@@H]2Oc3ccc(NC(=O)c4ccncc4)cc3C(=O)N([C@H](C)CO)C[C@H]2C)cc1`, the activation was 0.114% (inactive).

On to `CC(C)NC(=O)Nc1ccc2c(c1)CC(=O)N([C@H](C)CO)C[C@@H](C)[C@@H](CN(C)Cc1ccc3c(c1)OCO3)O2`, for which the activation was -0.173% (inactive).

For `C[C@H](NC(=O)C[C@H]1CC[C@H]2[C@H](COc3ccc(NS(=O)(=O)c4ccc(Cl)cc4)cc3C(=O)N2C)O1)c1ccccc1`, the activation was 0.192% (inactive).

Take `C[C@H]1CN([C@@H](C)CO)C(=O)Cc2cc(NC(=O)CCCCCC(=O)Nc3ccccc3N)ccc2O[C@H]1CN(C)Cc1ccc(Cl)c(Cl)c1`: the activation was 5.06% (inactive).

The values above are taken from PubChem BioAssay AID977605 (Broad Institute, 2014).
